As a reminder, the Cmax is the maximum level reached in the sampled fluid or tissue. One may read the fraction unbound as the share of the substance not bound to proteins or other matrix. The AUC is concentration integrated over time. A higher AUC goes with more exposure.

The text below walks through data of article PMC7926264 (Clinical cancer research : an official journal of the …, 2020).

Data set [1] has as its system H661 cells (HER4 overexpression). Description: cells. Format: cell-based. The note with it: Homo sapiens, NCI-H661, 72 h, read-out: IC50 proliferation.
Data set [2] deals with H2170 cells (HER2 amp). Description: cells. It is filed as cell-based. The note with it: Homo sapiens, NCI-H2170, 72 h, read-out: IC50 proliferation.
For data set [3], the system named is H1781 cells (HER2 ex20ins). Description: cells. It is filed as cell-based. The note with it: Homo sapiens, NCI-H1781, 72 h, read-out: IC50 proliferation.
For data set [4], the system named is CUTO18 cells (EGFR exon 20 insertion p.S768_D770dupSVD). Kind of data set: cells. The note with it: Homo sapiens, 72 h, read-out: IC50 proliferation.
Data set [5] relates to EGFR phosphorylation (pEGFR) in CUTO14, CUTO17, and CUTO18.
Data set [6] has as its system CUTO17 cells (EGFR exon 20 insertion p.N771_773dupNPH). Description: cells. The note with it: Homo sapiens, CUTO17, 72 h, read-out: IC50 proliferation.
Data set [7] has as its system Calu-3 cells (HER2 amp). Kind of data set: cells. Format: cell-based. The note with it: Homo sapiens, Calu-3, 72 h, read-out: IC50 proliferation.
The test system of data set [8] is CUTO14 cells (EGFR exon 20 insertion p.A767_V769dupASV). Kind of data set: cells. The note with it: Homo sapiens, CUTO14, 72 h, read-out: IC50 proliferation.
The conditions of data set [9]: cited from earlier work.
A short description of data set [10]: Mouse plasma protein binding. Format: in vitro ADME.
The subject of data set [11] is MDA-MB-175vIII cells (DOC4-NRG1 fusion). Description: cells. It is filed as cell-based. The note with it: Homo sapiens, 72 h, read-out: IC50 proliferation.
A short description of data set [12]: Human plasma protein binding. It is filed as in vitro ADME.
Data set [13] is described as follows: Clinical plasma pharmacokinetics of afatinib. It is filed as in vivo. The note with it: human, po, 40 mg.
Data set [14] in a line: Afatinib plasma pharmacokinetics and human equivalent dose in nude mice. It is filed as in vivo.

Take `C=CC(=O)Nc1cc(Nc2nccc(-c3cn(C)c4ccccc34)n2)c(OC)cc1N(C)CCN(C)C` [Osimertinib]: the IC50 amounted to 4518 ± 2 nM in [1]; 113 ± 4.4 nM in data set [2]; 406 nM in data set [3]; 647 ± 6.7 nM in data set [4]; 426 ± 21.5 nM in [6]; 188 ± 35.2 nM in [7]. Further, the IC50 in data set [8] was found to be 303 nM. In data set [5], the “inhibition of EGFR phosphorylation (pEGFR)” value is listed as “showed inhibition at higher concentrations”.

`CN(C)C/C=C/C(=O)Nc1cc2c(Nc3ccc(F)c(Cl)c3)ncnc2cc1O[C@H]1CCOC1` [Afatinib]: the IC50 came out at 11 ± 2.9 nM in data set [2], 66 nM in data set [3], 1.2 ± 3.1 nM in [11] and 31 ± 11.4 nM in [7]. In addition, in data set [9] (40mg PO daily), the “Cmax in patients at steady state” value was 38 ng/mL. Further, in [9] (human, 40 mg PO once daily), the “plasma AUCtotal” value was 324 ng·h/mL. Also, in data set [9] (read-out: Cmax in patients at steady state, 40mg PO daily), the Cmax is 78 nM. The fraction unbound in data set [10] was 0.0577; in data set [12], 0.0821. The same compound registered an AUC in [13] of 27 ng·h/mL. Further, the “human equivalent dose (HED) in nude mice” value in data set [14] (extrapolation by linear regression to total AUC of 468 ng*hr/mL) is listed as 6 mg/kg. Also, the “plasma AUCtotal required in mice to replicate human AUCfree” value in data set [14] (mice) was determined as 468 ng·h/mL.
